Assay results taken from Sander's compilation of Henry's law constants (doi:10.1080/00039896.1979.10667371).
Blank lines part the entries; values can stand above or below the compound they belong to.

Experiment: Henry solubility constant Hcp at 310 K (mol/(m3 Pa))
Details: reference: Sato and Nakajima (1979b)

Henry solubility constant Hcp at 310 K: 0.00027
Structure (SMILES): CCCCCCl [1-chloropentane]

Structure (SMILES): ClCC(Cl)Cl [1,1,2-trichloroethane]
Henry solubility constant Hcp at 310 K: 0.0066

Structure (SMILES): ClC=C(Cl)Cl [trichloroethene]
Henry solubility constant Hcp at 310 K: 0.0005

Structure (SMILES): CCCCCl [1-chlorobutane]
Henry solubility constant Hcp at 310 K: 0.00033

Structure (SMILES): Clc1cccc(Cl)c1 [1,3-dichlorobenzene]
Henry solubility constant Hcp at 310 K: 0.0021

Structure (SMILES): Clc1ccccc1 [chlorobenzene]
Henry solubility constant Hcp at 310 K: 0.0016

Structure (SMILES): ClC(Cl)C(Cl)Cl [1,1,2,2-tetrachloroethane]
Henry solubility constant Hcp at 310 K: 0.014

Structure (SMILES): ClCC(Cl)(Cl)Cl [1,1,1,2-tetrachloroethane]
Henry solubility constant Hcp at 310 K: 0.0021

Structure (SMILES): CC(Cl)(Cl)Cl [1,1,1-trichloroethane]
Henry solubility constant Hcp at 310 K: 0.00036

Structure (SMILES): CC(Cl)CCl (stereo not drawn) [1,2-dichloropropane]
Henry solubility constant Hcp at 310 K: 0.0021

Henry solubility constant Hcp at 310 K: 0.0028
Structure (SMILES): ClCCl [dichloromethane]

Structure (SMILES): ClC(Cl)(Cl)Cl [tetrachloromethane]
Henry solubility constant Hcp at 310 K: 9.7e-05

Structure (SMILES): ClC(Cl)=C(Cl)Cl [tetrachloroethene]
Henry solubility constant Hcp at 310 K: 0.00017
